Experimental findings from ChEMBL document CHEMBL1687855, “Nardosinane sesquiterpenoids from the Formosan soft coral Lemnalia flava” (2011) are described below.

Activity calls are given as the source filed them. No cut-off for these calls is given here.

Experiment [1] has as its system RAW264.7. As to the kind of experiment: Antiinflammatory activity in mouse RAW264.7 cells assessed as inhibition of LPS-induced up-regulation of pro-inflammatory protein COX-2 by Western blot analysis. The experiment is classed as functional.
For experiment [2], the system named is SH-SY5Y. The experiment is described as follows: Neuroprotective activity against 1 hr compound pretreated human SH-SY5Y cells assessed as reduction in 6-OHDA induced damage at 10^-4 uM by MTT assay. On the set-up: scale not given: the % may be the effect or the level left. The experiment is classed as functional. For orientation: Tetrazolium assays rely on reduction of a dye to a coloured formazan, in cell work by metabolically active cells.

Experiment [3] relates to Daoy. The experiment is described as follows: Cytotoxicity against human DaOY cells. The experiment is classed as functional, cell-based.
Experiment [4] deals with HEp-2. As to the kind of experiment: Cytotoxicity against human Hep2 cells. The experiment is classed as functional, cell-based.
Experiment [5] concerns DLD-1. As to the kind of experiment: Cytotoxicity against human DLD1 cells. The experiment is classed as functional, cell-based.
The subject of experiment [6] is SH-SY5Y. As to the kind of experiment: Neuroprotective activity against 1 hr compound pretreated human SH-SY5Y cells assessed as reduction in 6-OHDA induced damage at 10^-2 uM by MTT assay. The experiment is classed as functional. The arrangement: scale not given: the % may be the effect or the level left.
In experiment [7] the test system is SH-SY5Y. As to the kind of experiment: Neuroprotective activity against 1 hr compound pretreated human SH-SY5Y cells assessed as reduction in 6-OHDA induced damage at 1 uM by MTT assay. Type of experiment: functional. The arrangement: scale not given: the % may be the effect or the level left.
For experiment [8], the system named is HL-60. The experiment is described as follows: Cytotoxicity against human HL60 cells. Type of experiment: functional, cell-based.
Experiment [9] concerns CCRF-CEM. The experiment is described as follows: Cytotoxicity against human CCRF-CEM cells. Type of experiment: functional, cell-based.
For experiment [10], the system named is SH-SY5Y. The experiment is described as follows: Neuroprotective activity against 1 hr compound pretreated human SH-SY5Y cells assessed as reduction in 6-OHDA induced damage at 10^-3 uM by MTT assay. The arrangement: scale not given: the % may be the effect or the level left. Type of experiment: functional.
Experiment [11] concerns SH-SY5Y. The experiment is described as follows: Neuroprotective activity against 1 hr compound pretreated human SH-SY5Y cells assessed as reduction in 6-OHDA induced damage at 10^-1 uM by MTT assay. Type of experiment: functional. On the set-up: scale not given: the % may be the effect or the level left.
Experiment [12] relates to MCF7. The experiment is described as follows: Cytotoxicity against human MCF7 cells. The experiment is classed as functional, cell-based.
The subject of experiment [13] is SH-SY5Y. As to the kind of experiment: Neuroprotective activity against 1 hr compound pretreated human SH-SY5Y cells assessed as reduction in 6-OHDA induced damage at 10 uM by MTT assay. The experiment is classed as functional. On the set-up: scale not given: the % may be the effect or the level left.
For experiment [14], the system named is RAW264.7. As to the kind of experiment: Antiinflammatory activity in mouse RAW264.7 cells assessed as inhibition of LPS-induced up-regulation of pro-inflammatory protein iNOS by Western blot analysis. Type of experiment: functional. (Immunoblotting shows a protein as a band on a membrane.)
In experiment [15] the test system is P388D1. As to the kind of experiment: Cytotoxicity against […] cells. The experiment is classed as functional, cell-based. As to conditions: Mus musculus.
Experiment [16] concerns WiDr. As to the kind of experiment: Cytotoxicity against human WiDr cells. Type of experiment: functional, cell-based.
In experiment [17] the test system is SH-SY5Y. The experiment is described as follows: Neuroprotective activity against 1 hr compound pretreated human SH-SY5Y cells assessed as reduction in 6-OHDA induced damage at 10 '-4 to 10 uM by MTT assay. The experiment is classed as functional. The arrangement: scale not given: the % may be the effect or the level left.
Setting [18] is: read-out: ED50 (the source's name).

Take `C[C@@H]1[C@@H]2O[C@H]3CC[C@@]4(C=CC[C@H](C)[C@@]4(C)[C@H]13)O2` [FLAVALIN A]: the Activity result in experiment [1] was “Dose-dependent effect”; in experiment [2], 16.9%; in [6] it was 30.8%; in [7], 35.1%; in experiment [10], 5.84%; in experiment [11] it was 25.3%. For the same compound, the Activity in [13] was 20.9%; in experiment [14], “Dose-dependent effect”. Also, the results for the EC50 in [1] (setting [18]) and in experiment [14] (setting [18]) were 26.5 µM and 20.5 µM, respectively. The result in experiment [3], in experiment [4], in [5], in experiment [8], in experiment [9] and in experiment [12] was inactive. The outcome in experiment [15] and in [16] was inactive.
As for `C[C@@H]1[C@@H](O)O[C@@]23C=CC[C@H](C)[C@@]2(C)[C@H]1C(=O)CC3` [FLAVALIN B], the Activity in experiment [2] was found to be 29.6%; in experiment [6], 30.2%; in [7], 21.3%; in experiment [10], 32.6%; in experiment [11], 24.3%; in [13], 30.1%. The outcome in experiment [3], in experiment [4], in experiment [5], in experiment [8], in experiment [9] and in experiment [12] was inactive. For the same compound, the outcome in experiment [15] and in experiment [16] was inactive.
`CO[C@H]1O[C@@]23C=CC[C@H](C)[C@@]2(C)[C@@H](C(=O)CC3)[C@@H]1C` [FLAVALIN C]: the outcome in experiment [3], in experiment [4], in experiment [5], in experiment [8], in experiment [9] and in [12] was inactive. In addition, the outcome in experiment [15] and in [16] was inactive. In addition, the Activity in [17] was under 20%.
Regarding `CO[C@@H]1O[C@@]23C=CC[C@H](C)[C@@]2(C)[C@@H](C(=O)CC3)[C@@H]1C` [FLAVALIN D], the outcome in experiment [3], in [4], in experiment [5], in [8], in experiment [9] and in [12] was inactive. The result in [15] and in experiment [16] was inactive. Further, in [17], the Activity is under 20%.
